Assay results reported in the NIST ThermoML archive (doi:10.1016/j.fluid.2015.10.026).
± gives the expanded uncertainty stated by the source.

Conditions: Liquid, Brillouin light scattering

Cc1ccccc1 [toluene]
speed of sound (323.15 K): 1200.8 ± 6 m/s | speed of sound (373.15 K): 1000 ± 5 m/s | speed of sound (423.15 K): 806 ± 5.2 m/s | speed of sound (473.15 K): 616.2 ± 3.3 m/s | speed of sound (523.15 K): 425.5 ± 2.4 m/s
